Results taken from US10239844B2, “Disubstituted triazole analogs” (BioVentures, LLC, priority 2014, dated 2019).

Assays:
[1] = test system: SK-OV-3; assay: NCI 60 panel five-dose growth inhibition, Ovarian Cancer; format: cell-based, human; conditions: SK-OV-3, Ovarian Cancer; for GI50: Homo sapiens
[2] = test system: SF-295; assay: NCI 60 panel five-dose growth inhibition, CNS Cancer; format: cell-based, human; conditions: SF-295, CNS Cancer; for GI50: Homo sapiens
[3] = test system: MDA-MB-468; assay: NCI 60 panel five-dose growth inhibition, Breast Cancer; format: cell-based, human; conditions: MDA-MB-468, Breast Cancer; for GI50: Homo sapiens
[4] = test system: DU-145; assay: NCI 60 panel five-dose growth inhibition, Prostate Cancer; format: cell-based, human; conditions: DU-145, Prostate Cancer; for GI50: Homo sapiens
[5] = test system: SR; assay: NCI 60 panel five-dose growth inhibition, Leukemia; format: cell-based, human; conditions: for GI50: Homo sapiens
[6] = test system: SNB-75; assay: NCI 60 panel five-dose growth inhibition, CNS Cancer; format: cell-based, human; conditions: SNB-75, CNS Cancer; for GI50: Homo sapiens
[7] = test system: A498; assay: NCI 60 panel five-dose growth inhibition, Renal Cancer; format: cell-based, human; conditions: for GI50: Homo sapiens, A498, A498, Renal Cancer
[8] = test system: HOP-92; assay: NCI 60 panel five-dose growth inhibition, Non-Small Cell Lung Cancer; format: cell-based, human; conditions: HOP-92, Non-Small Cell Lung Cancer; for GI50: Homo sapiens
[9] = test system: U251; assay: NCI 60 panel five-dose growth inhibition, CNS Cancer; format: cell-based, human; conditions: for GI50: Homo sapiens, U-251
[10] = test system: SF-539; assay: as above; format: cell-based, human; conditions: for GI50: Homo sapiens
[11] = test system: panel of 60 different human cancer cell lines; assay: NCI panel of 60 human cancer cell lines, summary over the panel; format: cell-based; conditions: against almost all the cell lines except UACC-62, COLO 205 and HCC-2998
Protocol: All synthesized compounds were submitted and evaluated for their anticancer activity at the National Cancer Institute (NCI). The submitted compounds were tested against a panel of 60 different human cancer cell lines, initially at a single concentration of 10 μM. Compounds showing the best growth inhibition activity were then selected for a complete five-dose response study. The anti-tumor effect of each compound was then determined by its GI50 and LC50 values.
The five compounds selected for the full dose response studies have very effective GI50 and TGI (Total Growth Inhibition) values against a variety of human tumor cell lines. All the compounds have LD50 values >100 μM against most of the human cancer cell lines implying the compounds are anti-proliferative. […] Example 4 and Example 6 have <10 nM GI50 values against Leukemia cancer cell lines K-562, SR, non-small lung cancer cell line HOP-92, colon cancer cell lines HCT-116, HCT-15, melanoma cancer lines M14, UACC-62, ovarian cancer cell line NCI/ADR-RES and renal cancer cell line A498.

SMILES: COc1cc(-c2n[nH]nc2-c2ccc3c(c2)OCCO3)cc(OC)c1OC [Example 7, 4-(2,3-dihydrobenzo[b][1,4]dioxin-6-yl)-5-(3,4,5-trimethoxyphenyl)-2H-1,2,3-triazole]
- GI50 [1]: 486 nM
- TGI [1]: 93200 nM
- GI50 [2]: 98.9 nM
- TGI [2]: 3610 nM
- GI50 [3]: 226 nM
- TGI [3]: 25800 nM
- TGI [4]: >100000 nM
- GI50 [4]: 346 nM
- TGI [5]: 11600 nM
- GI50 [5]: 43.6 nM
- GI50 [6]: 82.4 nM
- TGI ([7]; A498, Renal Cancer): 9320 nM
- GI50 [7]: 343 nM
- TGI [8]: 1590 nM
- GI50 [8]: 122 nM
- TGI [9]: 11200 nM
- GI50 [9]: 302 nM
- GI50 ([10]; SF-539, CNS Cancer): 181 nM
- TGI ([10]; SF-539, CNS Cancer): 540 nM

SMILES: COc1ccc(-c2n[nH]nc2-c2cc(OC)cc(OC)c2)cc1 [Example 5, 4-(3,5-dimethoxyphenyl)-5-(4-methoxyphenyl)-2H-1,2,3-triazole]
- GI50 [1]: < 10 nM
- TGI [1]: 40300 nM
- GI50 [2]: < 10 nM
- TGI [2]: 27500 nM
- GI50 [3]: < 10 nM
- TGI [3]: 22400 nM
- GI50 [4]: < 10 nM
- TGI [5]: >100000 nM
- GI50 [5]: < 10 nM
- GI50 [6]: < 10 nM
- TGI ([7]; A498, Renal Cancer): <10 nM
- TGI ([7]; A498, as stated in text): less than 10 nM
- GI50 [7]: < 10 nM
- TGI [8]: 80 nM
- GI50 [8]: < 10 nM
- GI50 [11]: < 10 nM
- TGI [9]: 16500 nM
- GI50 [9]: < 10 nM
- GI50 ([10]; SF-539, CNS Cancer): < 10 nM
- TGI ([10]; SF-539, CNS Cancer): <10 nM
- TGI ([10]; SF-539, as stated in text): less than 10 nM

SMILES: COc1ccc(-c2n[nH]nc2-c2cc(OC)c(OC)c(OC)c2)cc1 [Example 6, 4-(4-methoxyphenyl)-5-(3,4,5-trimethoxyphenyl)-2H-1,2,3-triazole]
- GI50 [1]: < 10 nM
- TGI [1]: 12700 nM
- GI50 [2]: < 10 nM
- TGI [2]: 42800 nM
- GI50 [3]: 14.7 nM
- TGI [3]: 30500 nM
- TGI [4]: >100000 nM
- GI50 [4]: 25 nM
- TGI [5]: 24000 nM
- GI50 [5]: < 10 nM
- GI50 [6]: < 10 nM
- TGI [6]: 21900 nM
- TGI ([7]; A498, Renal Cancer): 1500 nM
- GI50 [7]: < 10 nM
- TGI [8]: 540 nM
- GI50 [8]: < 10 nM
- TGI [9]: 22700 nM
- GI50 [9]: 20.1 nM
- GI50 ([10]; SF-539, CNS Cancer): < 10 nM

SMILES: COc1cc(-c2n[nH]nc2-c2ccc3ccccc3n2)cc(OC)c1OC [Example 4, 2-(5-(3,4,5-trimethoxyphenyl)-2H-1,2,3-triazol-4-yl)quinoline]
- GI50 [1]: 45.8 nM
- TGI [1]: >100000 nM
- GI50 [2]: 10.8 nM
- TGI [2]: 150 nM
- GI50 [3]: 23.3 nM
- TGI [3]: 80 nM
- TGI [4]: >100000 nM
- GI50 [4]: 44.8 nM
- TGI [5]: 16900 nM
- GI50 [5]: < 10 nM
- GI50 [6]: 14.2 nM
- TGI [6]: >100000 nM
- GI50 [7]: < 10 nM
- TGI [8]: 2670 nM
- GI50 [8]: < 10 nM
- TGI [9]: >100000 nM
- GI50 [9]: 37.9 nM
- GI50 ([10]; SF-539, CNS Cancer): 13.8 nM
- TGI ([10]; SF-539, CNS Cancer): 40 nM

SMILES: COc1cc(-c2n[nH]nc2-c2cc(OC)c(OC)c(OC)c2)cc(OC)c1OC [Example 3, 4,5-bis(3,4,5-trimethoxyphenyl)-2H-1,2,3-triazole]
- GI50 [1]: 75 nM
- TGI [1]: 97700 nM
- GI50 [2]: 14.4 nM
- TGI [2]: >100000 nM
- GI50 [3]: 34.6 nM
- TGI [3]: 26000 nM
- GI50 [4]: 26.6 nM
- TGI [5]: >100000 nM
- GI50 [5]: 21.1 nM
- GI50 [6]: 15.7 nM
- TGI ([7]; A498, Renal Cancer): 6690 nM
- GI50 [7]: 33.2 nM
- TGI [8]: 11300 nM
- GI50 [8]: 98.9 nM
- TGI [9]: 46900 nM
- GI50 [9]: 37.1 nM
- GI50 ([10]; SF-539, CNS Cancer): 20 nM
- TGI ([10]; SF-539, CNS Cancer): 50 nM
